Assay results as given in patent publication US20200309872A1, “APPARATUS AND METHOD OF AIR-SUSPENDED BIOFABRICATION OF TISSUE-ENGINEERED ORGAN CONSTRUCTS AND CONGLOMERATES OF SPHEROIDS, CELLS AND OTHER BIOLOGICAL OBJECTS BY USING MAGNETIC FIELD” (priority 2019, published 2020).

Legend:
Format in all cases: cell-based
[1] = tested on: chondrospheres from primary sheep chondrocytes; experiment: Estimation of spheroid cell density by cell counting on semi-thin sections
Method: Spheroid cell density was estimated by analysis of semi-thin sections of tissue spheroids using Image J 1.48v software (NIH, Bethesda, Md., USA).
(§1) The viability of cells within tissue spheroids was analyzed by measuring the luminescent signal generated by luciferin-luciferase interconnection as a function of cytoplasmic ATP concentration. […] The highly statistically significant difference (p<0.0005) in cell density corresponded to 85% in 50 mM Gd3+ solution compared to 100% in 0 mM Gd3+ solution, while the cell density at 250mM Gd3+ concentration was 40% (FIG. 3c).

[2] = tested on: chondrospheres from primary sheep chondrocytes; experiment: Fusion of 30 chondrospheres into a microtissue construct in non-adhesive microplate
Method: To check the possibility of microtissue construct biofabrication at different concentrations of Gd3+, 30 chondrospheres were placed in the same well of non-adhesive microplate and allowed fusion for 48 hours (FIG. 5c). […] Scale bar −500 μm.

[3] = tested on: chondrospheres from primary sheep chondrocytes; experiment: Mechanical testing of tissue spheroids (parallel-plate compression, Microsquisher); conditions: for elastic modulus of spheroids: 24 hours, 0 mM control 2.91±0.15 kPa
Method: The mechanical properties of tissue spheroids were measured by a micro-scale parallel-plate compression testing system Microsquisher (CellScale, Canada) with associated SquisherJoy software. Tissue spheroids with a starting cell number of 8000 cells were formed using Corning spheroid microplates. They were cultured 3 days and then placed in 0, 50 and 18 250 mM Gd3+ concentrations for 24 hours prior to mechanical characterization. For mechanical testing spheroids were placed in a PBS-filled bath at 37° C. and compressed to 50% deformation in 20 sec. The microbeams with diameters 152.4 μm (recommended max force […]) and 304.8 μm (recommended max force […]) were employed depending on the stiffness and sensitivity required to measure tissue spheroids from different cell types. The force-displacement data obtained from the compression test were converted to stress-strain curves and the lower portion of the curve (0-20% strain) was used to obtain a linear regression line and estimate the Young's modulus. In each group eight samples of spheroids were measured.
The influence of gadolinium Gd3+ on mechanical properties of tissue spheroids was estimated by tensiometry using parallel plates modification. […] The values of elastic modulus of spheroids in 0 and 50 mM Gd3+ solutions were 2.91±0.15 kPa and 18 2.95±0.1 kPa, correspondingly. […] This observation can be explained by low viability of tissue spheroids in 250 mM Gd3+ solution.
The sharp rise of the curve in the area of high strain values is associated with an increase of the tissue spheroid cross section. […] The stress-strain curve changes practically linearly before this strain; in this section we calculated the Young's modulus.

[4] = tested on: chondrospheres from primary sheep chondrocytes; experiment: Tissue spheroid viability, CellTiter-Glo 3D (cytoplasmic ATP luminescence); conditions: 24 hours of incubation
Method: The viability of tissue spheroids was assessed using the CellTiter-Glo 3D kit according to the manufacturer protocol. Briefly, 3-day-old tissue spheroids with a starting cell number of 8000 cells were placed in 0, 50 and 250 mM Gd3+ concentrations for 24 hours. Then CellTiter-Glo 3D kit was added and luminescence was recorded after 30 min incubation using VICTOR X3 Multilabel Plate Reader (Perkin Elmer, USA).
as §1

[5] = tested on: chondrospheres from primary sheep chondrocytes; experiment: Histological analysis on semi-thin sections of tissue spheroids (toluidine blue)
Method: Tissue spheroids were fixed with 2.5% glutaraldehyde/PBS and then treated with 1% osmium tetraoxide/PBS. The samples were dehydrated by soaking in a series of solutions of increasing concentrations of ethanol, stained with 1% uranyl acetate/70% ethanol and finally embedded to araldite-epon mixture. Semi-thin sections were prepared on a LKB-III ultratome (Sweden), stained with 1% toluidine blue and then examined using a light microscope (Leica DM 2500, Germany) equipped with a digital camera (Leica DFC 290, Germany).
A histological analysis on semi-thin sections of 3-day-old tissue spheroids was performed in order to estimate possible toxic effects and to determine an optimal nontoxic Gd3+ concentration (FIG. 3a). […] Scale bar—100μm.

[6] = tested on: chondrospheres from primary sheep chondrocytes; experiment: Spheroid fusion assay (spheroid doublets)
Method: Spheroid fusion assay was performed using Corning spheroid microplates (Corning, cat.# 4520). Pairs of 3-day-old tissue spheroids with a starting cell number of 8000 cells were placed in contact in 0, 50 and 250 mM Gd3+ concentrations and incubated for 7 days. Bright-field images of spheroid doublets were obtained at points 0 h, 4 h, 6 h, 1 day, 2 days, 3 days, 4 days and 7 days using Nikon Eclipse Ti-S microscope. Contact length, intersphere angle and doublet length were measured using Image J 1.48v software (NIH, Bethesda, Md., USA) and plotted as a function of time using GraphPad Prism software (GraphPad Software, Inc., La Jolla, Calif.). Doublet length (FIG. 5) was normalized to initial doublet length. Measurements for each parameter were reported as mean ±S.E.M.
To investigate the fusion of tissue spheroids at different Gd3+ concentrations, the pairs of spheroids were placed in contact with each other in the same well of low adhesion microplate and allowed to fuse for 7 days. The kinetics of tissue spheroid fusion was monitored and analyzed daily at bright-field under inverted microscope. Contact length, intersphere angle and doublet length were measured. […] Spheroid doublet in 0 mM Gd3+ solution shortened faster than spheroid doublet in 50 mM Gd3+ solution.

In the case of `CNC(=O)CN(CCN(CCN(CC(=O)[O-])CC(=O)NC)CC(=O)[O-])CC(=O)[O-].[Gd+3]` [Gd3+, Gadodiamide], the “cell density compared to 100% in 0 mM Gd3+ solution” value ([1]; 50 mM Gd3+ solution) was 85%, the “cell density compared to 100% in 0 mM Gd3+ solution” value ([1]; 250 mM Gd3+) was 40% and the “construct formation from 30 chondrospheres” value ([2]; 50 mM Gd3+, 2 days of incubation) was “formation of compact constructs was observed”. The “construct formation from 30 chondrospheres” value ([2]; 250 mM Gd3+, 48 hours) was “no constructs were formed”, the “effect on tissue spheroids Young's modulus” value ([3]; 50 mM Gd3+ in the growth medium) was “does not affect” and the “elastic modulus of spheroids” value ([3]; 50 mM Gd3+) was 2.95±0.1 kPa. For the same compound, the “decrease of Young's modulus” value ([3]; 250 mM Gd3+) was ~93%, the “elastic modulus of spheroids” value ([3]; 250 mM Gd3+) was 0.14±0.05 kPa and the “viability of tissue spheroids” value ([4]; 50 mM Gd3+) was “remained viable”. The “viability of tissue spheroids” value ([4]; 250 mM Gd3+) was “significant toxic effect”, the “cell density (histology, qualitative)” value ([5]; 50 mM Gd3+ solution) was “cell density did not change” and the cytoplasm staining ([5]; 50 mM Gd3+ solution) was “slightly reduced”. The “toxic effect on chondrospheres morphology” value ([5]; 250 mM Gd3+, 3-day-old spheroids, toluidine blue staining) was “severe toxic effect”, the “cell density (histology, qualitative)” value ([5]; 250 mM Gd3+, cell death and apoptosis, pycnotic nuclei, extracellular debris) was “cell density dramatically reduced” and the “fusion of spheroid pair (contact length, intersphere angle, doublet length)” value ([6]; 50 mM Gd3+, up to 7 days) was “contact lengths and intersphere angles increased as a function of time and doublet lengths shortened gradually”. The cytotoxicity ([6]; 250 mM Gd3+) was “high cytotoxicity”, the “fusion of spheroid pair” value ([6]; 250 mM Gd3+, up to 7 days) was “continued to fuse during first 24 hours and then no further progressive aggregation was observed” and the intersphere angle ([6]; seventh day of incubation, follows the 0 and 50 mM Gd3+ results, concentration not restated, indicates complete fusion) was 179 °.
